Results as given in article PMC7570844, “Skin Damages—Structure Activity Relationship of Benzimidazole Derivatives Bearing a 5-Membered Ring System” (Molecules, 2020).
Values after ≈ are worked out from the molar mass of the structure shown.

Tests used:
Microsporum gypseum = assay: Antidermatophyte plaque growth inhibition; format: cell-based; settings: Nannizzia gypsea; for inhibition at 100 µg/mL: M. gypseum, '+' has no key, read-out: Percent growth inhibition
Microsporum canis = assay: Antidermatophyte plaque growth inhibition; format: cell-based; settings: for inhibition at 100 µg/mL: M. canis, '+' has no key, read-out: Percent growth inhibition
[1] = test system: Trichophyton mentagrophytes; assay: Antidermatophyte plaque growth inhibition; format: cell-based; settings: for inhibition at 100 µg/mL: T. mentagrophytes, '+' has no key, read-out: Percent growth inhibition
Trichophyton tonsurans = assay: Antidermatophyte plaque growth inhibition; format: cell-based; settings: for inhibition at 100 µg/mL: T. tonsurans, '+' has no key, read-out: Percent growth inhibition
Epidermophyton floccosum = assay: Antidermatophyte plaque growth inhibition; format: cell-based; settings: for inhibition at 100 µg/mL: E. floccosum, '+' has no key, read-out: Percent growth inhibition
[2] = test system: herpes simplex virus-1 (KOS); assay: Antiviral activity in HEL cell cultures (CPE, MTS); format: cell-based; settings: Human alphaherpesvirus 1, HEL cells
[3] = test system: herpes simplex virus-2 (G); assay: Antiviral activity in HEL cell cultures (CPE, MTS); format: cell-based; settings: Human alphaherpesvirus 2; Herpes simplex virus-2, HEL cells
[4] = test system: herpes simplex virus-1 TK-KOS ACVr; assay: microbe, parasite or virus in culture; format: cell-based; settings: Human alphaherpesvirus 1, HEL, read-out: Antiviral EC50
vaccinia virus = assay: microbe, parasite or virus in culture; format: cell-based; settings: Orthopoxvirus vaccinia, HEL, read-out: Antiviral EC50
Adeno virus-2 = assay: Antiviral activity in HEL cell cultures (CPE, MTS); format: cell-based; settings: Adeno virus-2, HEL cells
Human Coronavirus (229E) = assay: microbe, parasite or virus in culture; format: cell-based; settings: HEL, read-out: Antiviral EC50
[5] = test system: vesicular stomatitis virus; assay: microbe, parasite or virus in culture; format: cell-based; settings: HeLa, read-out: Antiviral EC50
Coxsackie virus B4 = assay: Antiviral activity in HeLa cell cultures (CPE, MTS); format: cell-based; settings: Enterovirus B; Coxsackie virus B4, HeLa cells
[6] = test system: Respiratory syncytial virus; assay: microbe, parasite or virus in culture; format: cell-based; settings: human respiratory syncytial virus, HeLa cells, read-out: Antiviral EC50
[7] = test system: human embryonic lung (HEL) cell cultures
HeLa cell cultures = settings: human
[8] = DPPH radical scavenging test; settings: mean ± SEM
[9] = test system: human T-lymphocyte cells (CEM); assay: Cell proliferation inhibition
[10] = test system: human cervical carcinoma cells (HeLa); assay: Cell proliferation inhibition
[11] = test system: human pancreatic carcinoma cells (Mia Paca-2); assay: Cell proliferation inhibition
[12] = test system: human melanoma cells (SK-Mel 5); assay: Cell proliferation inhibition
[13] = Ferric reducing antioxidant power (FRAP) test; settings: mean ± SEM
[14] = test system: Candida albicans (ATCC 10231); assay: Anti-Candida albicans broth microdilution MIC
[15] = test system: HEK293T (Normal Kidney Epithelial Cells); assay: Cell proliferation inhibition, non-cancer control cells; settings: Homo sapiens, HEK-293T
[16] = UV filtering parameters of compounds in solution (MeOH, 290-400 nm)
[17] = Candida albicans, ATCC10231, 24 h

Compound	inhibition at 100 µg/mL (Microsporum gypseum)	inhibition at 100 µg/mL (Microsporum canis)	inhibition at 100 µg/mL [1]	inhibition at 100 µg/mL (Trichophyton tonsurans)	inhibition at 100 µg/mL (Epidermophyton floccosum)	EC50 [2]	EC50 [3]	EC50 [4]	EC50 (vaccinia virus)	EC50 (Adeno virus-2)	EC50 (Human Coronavirus (229E))	EC50 [5]	EC50 (Coxsackie virus B4)	EC50 [6]	melting point	Cytotoxic concentration [7]	Cytotoxic concentration (HeLa cell cultures)	IC50 [9]	IC50 [10]	MIC [14, 17]	other results
O=C(O)c1ccc2nc(-c3ccco3)[nH]c2c1 [Compound 14, 2-(furan-2-yl)-1H-benzimidazole-5-carboxylic Acid]	< 0%	18.7 ± 0.59%	< 0%	< 0%	6.45 ± 1.47%	> 100 µM	> 100 µM	> 100 µM	> 100 µM	> 100 µM	> 100 µM	> 100 µM	> 100 µM	> 100 µM	> 250 °C	> 100 µM	> 100 µM	75 ± 35 µM	> 100 µM	16 µg/mL (≈ 70.1 µM)	DPPH IC50 [8]: 1416.38 ± 21.40 µg/mL; IC50 [11]: > 100 µM; IC50 [12]: > 100 µM; FRAP [13]: 26.67 ± 2.89 µmolTE/g; IC50 [15]: > 100 µM; SPF [16]: 16.66±1.21; UVA/UVB [16]: 0.5; UVAPF [16]: 1.20±0.10; λc (critical wavelength) [16]: 332 nm
O=C(O)c1ccc2[nH]c(-c3cccs3)nc2c1 [Compound 15, 2-(thiophen-2-yl)-1H-benzimidazole-5-carboxylic Acid]	2.14 ± 0.59%	20.3 ± 0.54%	< 0%	4.48 ± 0.9%	6.45 ± 2.98%	> 100 µM	> 100 µM	> 100 µM	> 100 µM	> 100 µM	> 100 µM	> 100 µM	> 100 µM	> 100 µM	> 250 °C	> 100 µM	> 100 µM	50 ± 10 µM	> 100 µM	16 µg/mL (≈ 65.5 µM)	DPPH (% Inhibition) ([8]; tested at 1 mg/mL): 30.23 ± 1.45%; IC50 [11]: 80 ± 12 µM; IC50 [12]: > 100 µM; FRAP [13]: 181.84 ± 2.66 µmolTE/g; IC50 [15]: > 100 µM; SPF [16]: 6.40±0.12; UVA/UVB [16]: 0.43; UVAPF [16]: 1.42±0.11; λc (critical wavelength) [16]: 342 nm
OC(Cn1cncn1)(Cn1cncn1)c1ccc(F)cc1F [Fluconazole, reference compound]	–	–	–	–	–	–	–	–	–	–	–	–	–	–	–	–	–	–	–	0.5 µg/mL (≈ 1.63 µM)	IC50 (Microsporum gypseum; M. gypseum growth, read-out: IC50): 18.5 ± 1.23 µg/mL (≈ 60.4 µM); IC50 (Microsporum canis; M. canis growth, read-out: IC50): 29.6 ± 1.84 µg/mL (≈ 96.6 µM); IC50 ([1]; T. mentagrophytes growth, read-out: IC50): 3.53 ± 0.26 µg/mL (≈ 11.5 µM); IC50 (Trichophyton tonsurans; T. tonsurans growth, read-out: IC50): 19.4 ± 0.87 µg/mL (≈ 63.4 µM); IC50 (Epidermophyton floccosum; E. floccosum growth, read-out: IC50): 0.08 ± 0.005 µg/mL (≈ 0.261 µM); MIC ([14]; 48 h, tested 0.25-128 µg/mL, '-' = no activity): Neither synthesized compounds nor fluconazole showed activity
